Measured values from patent US9024071B2, “Therapeutic compounds” (University of Florida Research Foundation, Inc., priority 2009, dated 2015).
Entries after “also recorded” stand apart in the source; their conditions may differ.

Legend:
5HT2A [1] = molecular target: T1, 5HT2A (Homo sapiens, UniProt P28223); assay: Radioreceptor competition/saturation binding, 5HT2A ([3H]-ketanserin); conditions: competitive binding; for nH: Hill slope; for Ki: wild type receptor transiently expressed (FIG. 1: HEK 293 cells)
T1 sequence (P28223 whole entry): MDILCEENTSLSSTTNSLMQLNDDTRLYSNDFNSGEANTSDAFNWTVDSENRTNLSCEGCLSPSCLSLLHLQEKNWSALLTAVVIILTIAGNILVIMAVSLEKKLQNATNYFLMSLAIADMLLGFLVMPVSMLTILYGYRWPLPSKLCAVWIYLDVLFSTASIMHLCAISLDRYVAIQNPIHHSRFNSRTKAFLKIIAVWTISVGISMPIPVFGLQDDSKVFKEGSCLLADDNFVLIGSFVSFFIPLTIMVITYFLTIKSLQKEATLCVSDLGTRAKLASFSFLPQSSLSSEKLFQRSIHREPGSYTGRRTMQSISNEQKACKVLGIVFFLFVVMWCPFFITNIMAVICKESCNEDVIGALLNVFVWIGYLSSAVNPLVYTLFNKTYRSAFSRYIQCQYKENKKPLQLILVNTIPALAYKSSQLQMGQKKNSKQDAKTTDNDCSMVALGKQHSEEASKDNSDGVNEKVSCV
Experimental: (§1) Cells are grown at 37° C. in a humidified incubator with 5% CO2. The cDNAs encoding the human 5-HT2A, 5-HT2B, and 5-HT2C receptors (wild type) are purchased from UMR (Rolla, Mo.) for transient transfection of the clonal cells. For radioreceptor binding assays, 5-HT2A, 5-HT2B, and 5-HT2C receptor membranes are prepared from transfected CHO-K1 cells. For functional assays measuring activity of PLC/IP formation, transfected CHO-K1 cells are used for 5-HT2A and 5-HT2C receptors. […] Twenty-four hours before transfection, cells are seeded at 40% confluence in 100 mm dishes for radioreceptor binding assays or at 10^5 cells per well in 12-well plates for functional assays. CHO-K1 cells are transiently transfected with 12 μg of plasmid and 32 μl of lipofectamine (Invitrogen) per 100 mm dish for radioreceptor binding assays, or, 0.8 μg plasmid and 4.0 μl of lipofectamine per well for functional assays. For 5-HT2B functional assays using HEK cells, 24 μg plasmid DNA is mixed with 60 μl of Lipofectamine 2000 (Invitrogen) to transfect 1-2×10^6 cells in a 10-cm plate. Cells are allowed to express transfected receptors for another 24 hrs (Herrick, 1997).
(§2) Radioreceptor saturation and competition binding assays are performed using membrane homogenates, similar to our methods reported previously for the phylogenetically closely related histamine H1 GPCR (Booth, 2002; Moniri et al., 2004). […] Briefly, forty-eight hours following CHO cell transfection, cells are harvested and homogenized in 50 mM Tris-HCl containing 0.1% ascorbic acid and 4.0 mM CaCl2 at pH 7.4 (assay buffer). The homogenate is centrifuged at 35,000 g for 25 min and the resulting membrane pellet is re-suspended in assay buffer. Protein concentration is determined by the method of Lowry et al. (Lowry, 1951). […] Incubation of radioreceptor binding assay mixtures is for 1.0 h at 37° C., with termination by rapid filtration through Whatman GF/B filters using a 96-well cell harvester (Tomtec, Hamden, Conn.). The membrane-bound [^3H]-radioligand retained on the filter discs is quantified by liquid scintillation spectrometry. Data are analyzed by nonlinear regression using the sigmoidal curve-fitting algorithms in Prism 4.03 (GraphPad Software Inc., San Diego, Calif.). Ligand affinity is expressed as an approximation of Ki values by conversion of the IC50 data to K0.5 values using the equation K0.5=IC50/1+L/KD, where L is the concentration of radioligand having affinity KD (Cheng, 1973).

5HT2C [2] = molecular target: T2, 5HT2C (Homo sapiens, UniProt P28335); assay: Radioreceptor competition/saturation binding, 5HT2C ([3H]-mesulergine); conditions: competitive binding; for nH: Hill slope; for Ki: wild type receptor transiently expressed (FIG. 1: HEK 293 cells)
T2 sequence (P28335 33-458): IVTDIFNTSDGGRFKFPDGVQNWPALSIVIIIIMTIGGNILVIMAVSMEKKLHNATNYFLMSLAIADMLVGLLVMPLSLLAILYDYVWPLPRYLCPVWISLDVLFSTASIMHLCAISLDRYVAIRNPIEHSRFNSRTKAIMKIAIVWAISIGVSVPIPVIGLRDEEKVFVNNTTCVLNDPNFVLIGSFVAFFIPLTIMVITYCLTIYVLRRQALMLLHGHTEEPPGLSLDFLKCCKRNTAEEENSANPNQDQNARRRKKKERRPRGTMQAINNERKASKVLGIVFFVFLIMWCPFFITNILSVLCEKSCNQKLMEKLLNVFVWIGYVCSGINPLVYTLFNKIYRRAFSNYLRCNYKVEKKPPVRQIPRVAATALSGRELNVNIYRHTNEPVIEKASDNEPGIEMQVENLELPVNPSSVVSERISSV
Experimental: as §1, §2

Histamine H1 WT = molecular target: T3, Histamine H1 WT (Homo sapiens, UniProt P35367); assay: Competitive binding, histamine H1 receptor; conditions: Hill slope
T3 construct: expressed in transfected cells
T3 sequence (P35367 whole entry): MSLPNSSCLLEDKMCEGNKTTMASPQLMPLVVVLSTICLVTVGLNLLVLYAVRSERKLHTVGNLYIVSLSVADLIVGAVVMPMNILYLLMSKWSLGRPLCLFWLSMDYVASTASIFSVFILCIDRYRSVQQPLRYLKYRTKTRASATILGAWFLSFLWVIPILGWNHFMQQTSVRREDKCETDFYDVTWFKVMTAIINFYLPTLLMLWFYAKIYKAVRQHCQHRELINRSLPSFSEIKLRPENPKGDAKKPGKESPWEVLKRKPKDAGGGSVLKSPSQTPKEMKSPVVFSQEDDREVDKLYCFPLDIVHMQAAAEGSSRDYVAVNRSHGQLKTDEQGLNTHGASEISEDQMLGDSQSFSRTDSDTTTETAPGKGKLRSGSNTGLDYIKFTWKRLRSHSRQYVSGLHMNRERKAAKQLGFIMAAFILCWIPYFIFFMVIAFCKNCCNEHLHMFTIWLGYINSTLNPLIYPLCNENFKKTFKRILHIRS
Experimental: as §2

5HT2B [3] = molecular target: T4, 5HT2B (Homo sapiens, UniProt P41595); assay: Radioreceptor competition/saturation binding, 5HT2B ([3H]-mesulergine); conditions: competitive binding; for nH: Hill slope; for Ki: wild type receptor transiently expressed (FIG. 1: HEK 293 cells)
T4 sequence (P41595 whole entry): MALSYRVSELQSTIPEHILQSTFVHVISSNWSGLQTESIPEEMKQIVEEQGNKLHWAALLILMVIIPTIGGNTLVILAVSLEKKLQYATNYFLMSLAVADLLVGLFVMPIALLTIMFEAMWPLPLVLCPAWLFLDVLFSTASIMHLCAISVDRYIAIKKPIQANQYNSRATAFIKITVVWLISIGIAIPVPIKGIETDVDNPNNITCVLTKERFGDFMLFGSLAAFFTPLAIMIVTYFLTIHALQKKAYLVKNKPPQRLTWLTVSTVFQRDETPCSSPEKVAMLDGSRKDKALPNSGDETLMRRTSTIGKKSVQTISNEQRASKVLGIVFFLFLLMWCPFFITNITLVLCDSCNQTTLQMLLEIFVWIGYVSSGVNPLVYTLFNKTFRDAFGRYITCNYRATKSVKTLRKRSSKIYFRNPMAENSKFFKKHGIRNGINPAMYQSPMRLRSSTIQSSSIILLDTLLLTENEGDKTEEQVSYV
Experimental: as §1, §2

RSK 1 = RSK 1 (Homo sapiens, UniProt Q15418); assay: Kinase affinity panel (labeled tag binding), RSK 1; conditions: at 1.0 uM CAT
Chain of RSK 1 (Q15418 whole entry): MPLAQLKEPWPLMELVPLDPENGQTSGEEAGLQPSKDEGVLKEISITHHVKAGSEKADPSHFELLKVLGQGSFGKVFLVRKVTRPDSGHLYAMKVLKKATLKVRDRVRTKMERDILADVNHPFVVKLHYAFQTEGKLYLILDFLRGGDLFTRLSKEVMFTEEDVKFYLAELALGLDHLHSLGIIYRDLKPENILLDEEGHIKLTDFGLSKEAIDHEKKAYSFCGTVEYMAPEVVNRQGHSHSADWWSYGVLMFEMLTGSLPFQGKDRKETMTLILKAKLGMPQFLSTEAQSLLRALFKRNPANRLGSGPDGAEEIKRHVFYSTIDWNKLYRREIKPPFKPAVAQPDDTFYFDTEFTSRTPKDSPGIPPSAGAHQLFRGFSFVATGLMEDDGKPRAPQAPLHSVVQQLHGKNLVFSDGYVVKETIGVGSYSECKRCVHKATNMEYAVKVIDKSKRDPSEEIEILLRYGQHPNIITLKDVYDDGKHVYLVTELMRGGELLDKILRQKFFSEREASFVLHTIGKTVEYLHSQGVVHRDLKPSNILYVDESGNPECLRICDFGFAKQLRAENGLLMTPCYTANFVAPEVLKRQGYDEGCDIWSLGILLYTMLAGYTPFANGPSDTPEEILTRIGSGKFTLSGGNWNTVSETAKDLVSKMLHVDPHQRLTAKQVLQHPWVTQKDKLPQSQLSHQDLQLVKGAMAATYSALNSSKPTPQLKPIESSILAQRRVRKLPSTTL

RSK 3 = RSK 3 (Homo sapiens, UniProt Q15349); assay: Kinase affinity panel (labeled tag binding), RSK 3; conditions: at 1.0 uM CAT
Chain of RSK 3 (Q15349 whole entry): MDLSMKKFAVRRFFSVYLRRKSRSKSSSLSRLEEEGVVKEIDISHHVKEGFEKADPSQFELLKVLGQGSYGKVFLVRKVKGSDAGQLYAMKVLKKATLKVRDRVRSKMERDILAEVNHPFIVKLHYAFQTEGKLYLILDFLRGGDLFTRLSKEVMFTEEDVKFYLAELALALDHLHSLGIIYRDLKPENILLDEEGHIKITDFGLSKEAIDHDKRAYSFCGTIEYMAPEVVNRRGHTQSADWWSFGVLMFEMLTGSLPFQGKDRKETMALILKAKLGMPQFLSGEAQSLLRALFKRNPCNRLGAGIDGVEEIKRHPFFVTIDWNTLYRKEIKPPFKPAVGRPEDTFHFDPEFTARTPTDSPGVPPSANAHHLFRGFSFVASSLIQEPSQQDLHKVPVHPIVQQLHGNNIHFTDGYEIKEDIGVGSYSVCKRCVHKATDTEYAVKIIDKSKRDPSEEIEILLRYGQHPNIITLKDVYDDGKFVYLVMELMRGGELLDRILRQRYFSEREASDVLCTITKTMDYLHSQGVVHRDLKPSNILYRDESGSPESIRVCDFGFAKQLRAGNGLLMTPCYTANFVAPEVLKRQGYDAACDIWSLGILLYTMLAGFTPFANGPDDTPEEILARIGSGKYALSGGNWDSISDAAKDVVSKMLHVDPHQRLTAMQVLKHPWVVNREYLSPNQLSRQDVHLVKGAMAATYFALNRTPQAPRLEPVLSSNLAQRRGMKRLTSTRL

438 other kinases = assay: Kinase affinity panel (labeled tag binding), other kinases; conditions: at concentrations up to 1.0 uM
Histamine H1 receptor = Histamine H1 receptor (Homo sapiens, UniProt P35367); assay: Histamine H1 receptor-mediated stimulation of PLC activity/[3H]-IP formation; assay type: cell-based; conditions: against histamine activation
Chain of Histamine H1 receptor (P35367 whole entry): as the sequence (P35367 whole entry) above

5HT2C [4] = molecular target: T2, 5HT2C; assay: PLC activity/[3H]-IP formation, 5HT2C; assay type: cell-based
Experimental: (§3) Cells are grown at 37° C. in a humidified incubator with 5% CO2. The cDNAs encoding the human 5-HT2A, 5-HT2B, and 5-HT2C receptors (wild type) are purchased from UMR (Rolla, Mo.) for transient transfection of the clonal cells. For radioreceptor binding assays, 5-HT2A, 5-HT2B, and 5-HT2C receptor membranes are prepared from transfected CHO-K1 cells. For functional assays measuring activity of PLC/IP formation, transfected CHO-K1 cells are used for 5-HT2A and 5-HT2C receptors. For 5HT2B receptors, however, more robust and consistent results for the PLC/IP assay are obtained using transfected HEK cells (Setola et al., 2005). Twenty-four hours before transfection, cells are seeded at 40% confluence in 100 mm dishes for radioreceptor binding assays or at 10^5 cells per well in 12-well plates for functional assays. CHO-K1 cells are transiently transfected with 12 μg of plasmid and 32 μl of lipofectamine (Invitrogen) per 100 mm dish for radioreceptor binding assays, or, 0.8 μg plasmid and 4.0 μl of lipofectamine per well for functional assays. For 5-HT2B functional assays using HEK cells, 24 μg plasmid DNA is mixed with 60 μl of Lipofectamine 2000 (Invitrogen) to transfect 1-2×10^6 cells in a 10-cm plate. Cells are allowed to express transfected receptors for another 24 hrs (Herrick, 1997).
(§4) Functional activation of PLC is measured as [^3H]-IP formation in CHO cells transiently expressing serotonin 5-HT2C receptors or HEK cells transiently expressing serotonin 5-HT2A or 5-HT2B receptors, as previously reported (Moniri et al., 2004). Briefly, thirty-two hours following transfection, cells in inositol-free Dulbecco's modified Eagle's medium (DMEM) are incubated for twelve hours with 1.0 μCi/ml myo-[2-^3H]-inositol, the radiolabeled precursor of the PLC-β substrate phosphatidylinositol. […]
(§5) Functional activation of PLC is measured as [^3H]-IP formation in CHO cells transiently expressing 5-HT2A or 5-HT2C receptors and HEK cells transiently expressing 5HT2B receptors, as previously reported by our lab (Booth, 2002; Moniri et al., 2004). […]

5HT2A [5] = molecular target: T1, 5HT2A; assay: PLC activity/[3H]-IP formation, 5HT2A; assay type: cell-based
Experimental: as §3, §4, §5

5HT2B [6] = molecular target: T4, 5HT2B; assay: PLC activity/[3H]-IP formation, 5HT2B; assay type: cell-based
Experimental: as §1

RSK 2 = RSK 2 (Homo sapiens, UniProt P51812); assay: Kinase affinity panel (labeled tag binding), RSK 2; conditions: at concentrations up to 1.0 uM
Chain of RSK 2 (P51812 whole entry): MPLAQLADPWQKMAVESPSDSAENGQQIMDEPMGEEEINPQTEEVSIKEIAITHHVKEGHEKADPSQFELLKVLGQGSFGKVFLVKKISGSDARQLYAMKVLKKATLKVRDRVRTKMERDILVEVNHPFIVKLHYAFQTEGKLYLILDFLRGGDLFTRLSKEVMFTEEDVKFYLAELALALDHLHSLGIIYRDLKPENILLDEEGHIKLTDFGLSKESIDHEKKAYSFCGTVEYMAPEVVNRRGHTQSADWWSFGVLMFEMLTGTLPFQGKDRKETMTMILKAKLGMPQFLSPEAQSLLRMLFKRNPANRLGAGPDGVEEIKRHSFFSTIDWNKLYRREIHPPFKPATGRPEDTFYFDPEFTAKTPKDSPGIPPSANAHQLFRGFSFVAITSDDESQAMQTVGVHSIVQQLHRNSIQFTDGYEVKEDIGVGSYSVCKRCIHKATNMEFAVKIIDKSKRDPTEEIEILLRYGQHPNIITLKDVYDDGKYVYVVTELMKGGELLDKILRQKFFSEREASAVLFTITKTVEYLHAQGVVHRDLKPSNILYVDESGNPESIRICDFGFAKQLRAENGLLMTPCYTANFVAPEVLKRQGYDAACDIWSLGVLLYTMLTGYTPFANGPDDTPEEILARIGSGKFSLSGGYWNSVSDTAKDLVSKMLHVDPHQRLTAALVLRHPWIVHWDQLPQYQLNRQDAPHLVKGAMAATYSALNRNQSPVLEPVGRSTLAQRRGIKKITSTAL

RSK 4 = RSK 4 (Homo sapiens, UniProt Q9UK32); assay: Kinase affinity panel (labeled tag binding), RSK 4; conditions: at 1.0 uM CAT
Chain of RSK 4 (Q9UK32 whole entry): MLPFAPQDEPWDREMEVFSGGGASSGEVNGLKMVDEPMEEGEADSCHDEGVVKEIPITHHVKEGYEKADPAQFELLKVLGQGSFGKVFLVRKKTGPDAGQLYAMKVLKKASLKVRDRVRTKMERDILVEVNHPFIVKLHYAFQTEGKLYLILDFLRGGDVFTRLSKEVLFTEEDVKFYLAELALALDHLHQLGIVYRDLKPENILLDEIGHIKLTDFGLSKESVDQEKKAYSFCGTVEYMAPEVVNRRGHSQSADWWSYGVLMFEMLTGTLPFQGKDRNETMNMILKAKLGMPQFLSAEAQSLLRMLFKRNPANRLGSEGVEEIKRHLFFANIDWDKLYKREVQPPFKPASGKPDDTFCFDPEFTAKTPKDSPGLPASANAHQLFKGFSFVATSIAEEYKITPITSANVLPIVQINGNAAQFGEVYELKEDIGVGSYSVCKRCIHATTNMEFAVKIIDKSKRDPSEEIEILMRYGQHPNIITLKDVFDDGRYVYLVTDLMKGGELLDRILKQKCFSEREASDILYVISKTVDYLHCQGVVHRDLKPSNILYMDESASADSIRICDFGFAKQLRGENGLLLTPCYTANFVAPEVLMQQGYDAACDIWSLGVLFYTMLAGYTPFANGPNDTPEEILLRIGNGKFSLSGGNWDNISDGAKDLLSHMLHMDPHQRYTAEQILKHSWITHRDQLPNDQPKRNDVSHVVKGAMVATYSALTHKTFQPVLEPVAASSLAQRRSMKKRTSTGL

[7] = tested on: cocaine self-administration; conditions: rat; cited from earlier work
5HT2C [8] = molecular target: T2, 5HT2C; conditions: cited from earlier work
[9] = inhibition of basal (constitutive) [3H]-IP formation

Compound	nH (5HT2A [1])	Ki (5HT2A [1]) [nM]	nH (5HT2C [2])	Ki (5HT2C [2]) [nM]	nH (Histamine H1 WT)	nH (5HT2B [3])	Ki (5HT2B [3]) [nM]	rate of cocaine self-administration [7]	other results
CN(C)[C@H]1Cc2ccccc2[C@H](C2CCCCC2)C1 [(+)-trans-CAT, (+)-(2R,4S)-4-cyclohexyl-N,Ndimethyl-1,2,3,4-tetrahydronaphthalen-2-amine]	0.77 ± 0.20	78.2 ± 4	1.20 ± 0.26	28.9 ± 4.4	1.02 ± 0.00	0.75 ± 0.12	1010 ± 140		
CN(C)[C@@H]1Cc2ccccc2[C@@H](C2CCCCC2)C1 [(−)-trans-CAT, (−)-(2S,4R)-4-cyclohexyl-N,N-dimethyl-1,2,3,4-tetrahydronaphthalen-2-amine]	1.26 ± 0.01	1.61 ± 0.05	1.13 ± 0.18	13.7 ± 2.17	1.01 ± 0.05	0.81 ± 0.02	23.7 ± 0.79		inhibition of tag binding (RSK 1): 20%; inhibition of labeled tag binding (RSK 3): 80%; binding to 438 other kinases (438 other kinases): did not exhibit as significant binding; PLC/IP formation, kind of activity at H1 (Histamine H1 receptor): competitively antagonized; also recorded: Competitive; Kind of functional activity, PLC activity/IP formation (5HT2C [4]): inverse agonist; PLC/IP formation IMAX (5HT2C [4]): 60.65 ± 2.94 % Basal; IC50 (5HT2C [4]; [9]): 190 ± 40 nM; Kind of functional activity, PLC activity/IP formation (5HT2A [5]): inverse agonist; PLC/IP formation IMAX (5HT2A [5]): 48.45 ± 5.50 % Basal; IC50 (5HT2A [5]; [9]): 130 ± 20 nM; Kind of functional activity, PLC activity/IP formation (5HT2B [6]): inverse agonist; PLC/IP formation IMAX (5HT2B [6]): 56.80 ± 2.13 % Basal; IC50 (5HT2B [6]; [9]): 250 ± 30 nM; binding to RSK 2 (RSK 2): did not exhibit similarly significant binding; inhibition of labeled tag binding (RSK 4): 80%
COc1cccc([C@H](O)C2CCN(CCc3ccc(F)cc3)CC2)c1OC [M100907]								does not alter responding rate	
Cc1cc2c(cc1Cl)N(C(=O)Nc1ccc(Oc3cccnc3C)nc1)CC2 [SB242084]								increases the rate of cocaine self-administration dose-dependently	
C[C@H]1CNCCc2ccc(Cl)cc21 [lorcaserin, Lorcaserin]									selectivity for activation of 5HT2C receptors over 5HT2A receptors (5HT2C [8]): 15 fold
